Experimental findings from EP0605432B1, “INDUCTION OF CYTOLYTIC T-L[…] CYTOMEGALOVIRUS POLYPEPTIDES” (CITY OF HOPE, priority 1992, dated 2001) are described below.

This assay concerns HCMV infected cells. The assay is described as follows: CTL analysis of HPLC purified pp65-CNBr digest peptides. It counts as cell-based, human. The following applies: identification method: by experiment. As to the method: For chemical cleavage with CNBr, pp65 was dissolved in 60% formic acid and treated overnight under argon with a 100 fold molar excess of CNBr (over methionine residues). The solvent was evaporated at room temperature under a stream of argon, the residue resuspended in water and lyophilized. The peptides were fractionated by HPLC on a Vydac C4 reverse phase column, using a 90-minute linear gradient from 100% solvent A (0.1% TFA) to 100% solvent B (TFA/H2O/CH3CN, 0.1/9.9/90, v/v/v/). The HPLC purified peaks from map A were subjected to amino acid sequencing (performed by City of Hope) and from map B were used for CTL analysis (performed at the Fred Hutchinson Cancer Center).
Figure 4 is a map produced by the HPLC analysis. The HPLC purified peptide peaks designated by asterisks in Figure 4 were sequenced. These peptides correspond to sequences 1 through 6 (Sequence ID Nos. 1-6), of this application. The invention includes the use of these six peptides or portions thereof to lyse HCMV infected cells, and as immunogens in HCMV vaccines and skin test formulations.

For “SEQ ID NO:1: Fragment of pp65 protein expressed by HCMV (Towne), 98 amino acid residues, amino acid 12-109”, the “induction of CTLs that lyse HCMV infected cells” value is “Induces CTLs that lyse HCMV infected cells”.

Regarding “SEQ ID NO:6: C-terminal fragment of HCMV pp65 protein, 62 amino acid residues, amino acid 500-561”, the “induction of CTLs that lyse HCMV infected cells” value is “Induces CTLs that lyse HCMV infected cells”.
